What was measured:
Assay type in all cases: cell-based
HCV 1b replicon = assay: Antiviral activity assay in HCV replicon system (Huh7 1b cells, luciferase reporter); settings: Hepatitis C virus, Huh-7; Huh7 1b cells with HCV 1b replicon, Bright-Glo luciferase, 72 h; read-out: EC50
Excerpt: The cell line Huh7 1b, which was provided by WuXi AppTec Co., Ltd. in Shanghai, contained an HCV 1b replicon with a stable Luciferase (Luc) reporter. It was constructed by cloning HCV nonstructural protein gene, neo (G418 resistance) and luciferase reporter gene into the pBR vector through gene recombination technology. Then the vector carrying the HCV replicon was transfected into Huh7 cells, and the transfected Huh7 cells were screened by G418 resistance. The HCV replicon was stably replicated, and the related protein and luciferase were stably expressed in Huh7 cells. The cells model was used for in-vitro screen of anti-HCV compounds. The anti-HCV activity of the compounds was measured by detecting the level of luciferase expression. See Lohmann V, et al. 1999. Replication of subgenomic hepatitis C virus RNAs in a hepatoma cell line. Science. 285(5424):110-113.
The control drug used in this experimental example was the compound of Example 25 in WO 2008/121634 (PCT/US2008/058183), i.e. (S)-2-{[(2R,3R,4R,5R)-5-(2,4-dioxo-3,4-dihydro-2H-pyrimidin-1-yl)-4-fluoro-3-hydr oxy-4-methyl-tetrahydro-furan-2-ylmethoxy]-phenoxy-phosphorylamino}-propanoic acid isopropyl ester. This compound was prepared according to the method described in J. Org. chem, 2011, 76, 8311-8319, and identified by H-NMR and mass spectrometry.
• 2.1 compound preparation: adding each of the compounds listed in Table 2 to 96-well plates using a POD™ 810 Automation Platform (LabCyte Corporation, USA), with 10 μM of each of the compounds as a starting concentration and in duplicate; serially diluting each of the compounds in 3-fold fashion and formulating 10 concentrations, with the final concentration of DMSO being 0.5%; • 2.2 cells preparation: seeding the Huh71b cells into 96-well plates respectively with a volume of 125 μl and 8×10^3 cells/well, and incubating in a 37° C., 5% CO2 incubator for 72 h; • 2.3 detection of cell activity: adding 30 μl per cell of the CellTiter-Fluor™ Reagent, incubating in a 37° C., 5% CO2 incubator for 1 h, measuring the fluorescence signal values with a fluorometer, and using the obtained data for calculation of cytotoxicities of the compounds; • 2.4 Bright-Glo detection: adding 100 μl per well of the Bright-Glo™ Luciferase Substrate, using a chemiluminescence detection system EnVision™ (PerkinElmer, USA) to detect the fluorescence signal values within 5 minutes, and using the obtained data for calculation of potencies of the compounds. • 2.5 data processing: converting the obtained data to a percentage of cell viability (Viability %) using the following formula:
[formula] • CPD: fluorescence signal value of the well added with the compound • ZPE (Zero percent effect): fluorescence signal value of the control well with zero percent effect. • Processing the raw data to calculate a percentage of inhibition (Inhibition %) using the following formula:
[formula] • CPD: fluorescence signal value of the well added with the compound; • HPE (Hundred percent effect): fluorescence signal value of the control well with hundred percent effect; • ZPE (Zero percent effect): fluorescence signal value of the control well with zero percent effect.
The inhibition percentage was processed by the GraphPad Prism software to obtain the corresponding curves and EC50 values.

[1] = test system: J399EM (HCV genotype 2a) virus; assay: Antiviral activity assay in the cell-culture-derived infectious HCV (HCVcc) system; settings: for half maximal effective concentration (EC50) against the HCVcc GT2a viruses, in words: in vitro HCVcc system
Protocol: The compound according to the above example 1 was used in this experiment. The compound was formulated into a 10 mM mother liquid with DMSO, diluted to 500 nM by DMEM complete culture medium containing 0.5% of DMSO, followed by 4-fold dilution successively, and six concentrations were obtained. The positive control was diluted to 10 μM by DMEM complete culture medium containing 0.5% of DMSO, followed by 4-fold successively, and six concentrations were obtained.
(§1) Huh 7.5.1 cells, provided by Shanghai Institute of Materia Medica, Chinese Academy of Sciences.
J399EM (HCV genotype 2a) virus, i.e. a full length HCV mutant strain transfected with EGFP (enhanced green fluorescent protein) was used, which had the same infection capacity as the wild type JFH-1. The NS5A-EGFP fusion protein fluorescence was observed directly in infected cells by inserting EGFP coding sequence in the NS5A region. J399EM was provided by Shanghai Institute of Materia Medica, Chinese Academy of Sciences.
(§2) • 1) Huh 7.5.1 cells preparation: collecting the Huh7.5.1 cells in logarithmic phase, resuspending in DMEM complete culture medium, seeding into 96-well plates (7×10^3 cells/well), and incubating in a 37° C., 5% CO2 incubator for 24 h; • 2) virus infection: resuspending J399EM viruses in DMEM complete culture medium, adding the virus supernatant (MOI≈0.1) to the above 96-well plates, and washing with PBS after 8 hours of infection; • 3) drug treatment: adding various concentrations of the compounds to the Huh7.5.1 cells infected by J399EM viruses, with each concentration in duplicate; setting the control group with zero percent effect (ZPE) and the control group with hundred percent effect (HPE); replacing the compound with the DMEM complete culture medium containing 0.5% DMSO in ZPE group, and using the cells not infected with viruses in HPE group. • 4) cells incubation: incubating the 96-well plates in a 37° C., 5% CO2 incubator for 72 hr; • 5) anti-HCV activity detection: reading the relative fluorescence units (RFU) of each well by EnVision® Multi label Plate readers after incubation, and calculating the anti-HCV activity of the compounds using the obtained data according to the following formula: Inhibition %=(RFUZPE−RFUCPD)/(RFUZPE−RFUHPE)×100 • wherein RFUZPE represents the relative fluorescence units of the control group with zero percent effect and RFUCPD represents the relative fluorescence units of the corresponding compound group, and RFUHPE represents the relative fluorescence units of the control group with hundred percent effect. • 6) Cell viability detection: adding MTT solution to each well, incubating in a 37° C., 5% CO2 incubator for 4 hr, followed by addition of MTT dissolving solution, reading optical density (OD) of each well at 570 nm by the Multi label Plate readers after 6 hr, calculating the cytotoxicity of the compounds using the obtained data according to the following formula: Viability %=ODCPD/ODZPE×100 • wherein ODZPE represents the optical density of the control group with zero percent effect, and ODCPD represents the optical density of the corresponding compound; • 7) Data processing: processing the Inhibition %, Viability % by GraphPad Prism Software respectively, and obtaining the half maximal effective concentration (EC50) values and half maximal cytotoxic concentration (CC50) values of the compounds against the HVCcc GT2a viruses.

Huh 7.5.1 cells = assay: Cell viability detection (MTT) in the HCVcc system; settings: in vitro HCVcc system
Protocol: as §1, §2

[2] = Cell viability detection (MTT) in the HCVcc system; settings: human, Huh 7.5.1 cells infected with J399EM virus (HCVcc); Huh 7.5.1 cells, MTT, 72 hr
Protocol: as §1, §2

SMILES	EC50 (HCV 1b replicon) [nM]	half maximal effective concentration (EC50) against the HCVcc GT2a viruses, in words [1]	half maximal cytotoxic concentration (CC50), in words (Huh 7.5.1 cells)	EC50 ([1]; Hepatitis C virus, Huh-7.5.1, 72 h) [nM]	CC50 at 72 h [2] [nM]
CC(C)OC(=O)[C@H](C)NP(=O)(OC[C@H]1O[C@@H](n2ccc(=O)[nH]c2=O)[C@](C)(F)[C@@H]1O)Oc1cccc(-c2ccccc2)c1 (stereo partly drawn) [Example 2, (2S)-2-((([1,1′-biphenyl]-3-yloxy)(((2R,3R,4R,5R)-5-(2,4-dioxo-3,4-dihydropyrimidin-1(2H)-yl)-4-fluoro-3-hydroxy-4-methyltetrahydrofuran-2-yl)methoxy)phosphoryl)amino)propanoic Acid Isopropyl Ester]	105	low	high		
CC(C)OC(=O)[C@H](C)NP(=O)(OC[C@H]1O[C@@H](n2ccc(=O)[nH]c2=O)[C@](C)(F)[C@@H]1O)Oc1ccc(-c2ccc(F)cc2)cc1 (stereo partly drawn) [Example 5]	61	low	high		
CC(C)OC(=O)[C@H](C)NP(=O)(OC[C@H]1O[C@@H](n2ccc(=O)[nH]c2=O)[C@](C)(F)[C@@H]1O)Oc1ccc(-c2csnn2)cc1 (stereo partly drawn) [Example 12]	637	low	high		
CC(C)OC(=O)[C@H](C)NP(=O)(OC[C@H]1O[C@@H](n2ccc(=O)[nH]c2=O)[C@](C)(F)[C@@H]1O)Oc1ccc(-c2nccs2)cc1 (stereo partly drawn) [Example 16]	3870	low	high		
CC(C)OC(=O)[C@H](C)NP(=O)(OC[C@H]1O[C@@H](n2ccc(=O)[nH]c2=O)[C@](C)(F)[C@@H]1O)Oc1ccc(-c2ccc(C#N)cc2)cc1 (stereo partly drawn) [Example 18]	314	low	high		
CC(C)OC(=O)[C@H](C)NP(=O)(OC[C@H]1O[C@@H](n2ccc(=O)[nH]c2=O)[C@](C)(F)[C@@H]1O)Oc1ccc(-c2ccccc2)c(F)c1 (stereo partly drawn) [Example 28, (2S)-2-(((2-fluoro-[1,1′-biphenyl]-4-yloxy)(((2R,3R,4R,5R)-5-(2,4-dioxo-3,4-dihydropyrimidin-1(2H)-yl)-4-fluoro-3-hydroxy-4-methyltetrahydrofuran-2-yl)methoxy)phosphoryl)amino)propanoic Acid Isopropyl Ester]	123	low	high		
CC(C)OC(=O)[C@H](C)NP(=O)(OC[C@H]1O[C@@H](n2ccc(=O)[nH]c2=O)[C@](C)(F)[C@@H]1O)Oc1ccc(-c2cscn2)cc1 (stereo partly drawn) [Example 38, (2S)-2-(((4-(thiazol-4-yl)phenyloxy)(((2R,3R,4R,5R)-5-(2,4-dioxo-3,4-dihydropyrimidin-1(2H)-yl)-4-fluoro-3-hydroxy-4-methyltetrahydrofuran-2-yl)methoxy)phosphoryl)amino)propanoic Acid Isopropyl Ester]	100	low	high		
CC(C)OC(=O)[C@H](C)NP(=O)(OC[C@H]1O[C@@H](n2ccc(=O)[nH]c2=O)[C@](C)(F)[C@@H]1O)Oc1ccccc1 (stereo partly drawn) [Positive control, (S)-2-{[(2R,3R,4R,5R)-5-(2,4-dioxo-3,4-dihydro-2H-pyrimidin-1-yl)-4-fluoro-3-hydroxy-4-methyl-tetrahydro-furan-2-ylmethoxy]-phenoxy-phosphorylamino}-propanoic acid isopropyl ester, reference compound]	117			173	> 10000

Source: patent US9963480B2, “Nucleoside phosphoramidate compound and use thereof” (priority 2013, dated 2018)
